The values that follow come from PubChem BioAssay AID330 (DTP/NCI, 2004).

“And” between values parts separate entries of the source, which are not always exact repeats. Identical values can stand only once. Inconclusive results and toxic doses are left out. Peptide text beside a SMILES is read from it. * marks the point of attachment. Boc = CC(C)(C)OC(=O)*; OtBu = CC(C)(C)O*

The test concerns P388 leukemia ip, CD2F1 mice, survival T/C. Nature of the test: NCI In Vivo Anticancer Drug Screen. Data for tumor model P388 Leukemia (intraperitoneal) in CD2F1 (CDF1) mice. The settings on record: endpoint: median survival time, higher = longer survival. The gist of the method: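 Mice carrying the transplanted tumor received test compound or vehicle. Survival was recorded in each group, and the value is the treated-group measurement divided by that of the vehicle-treated control group.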

Where [1] appears, read: dose: 50.0 mg/kg/injection, schedule: Q01DX009 (ip), vehicle: saline with Tween-80.
Where [2] appears, read: dose: 100.0 mg/kg/injection, schedule: Q01DX009 (ip), vehicle: saline with Tween-80.
[3] abbreviates: dose: 200.0 mg/kg/injection, schedule: Q01DX009 (ip), vehicle: saline with Tween-80.
[4] abbreviates: dose: 50.0 mg/kg/injection, schedule: Q01DX009 (ip), vehicle: Klucel (hydroxypropylcellulose) (HPC).
[5] abbreviates: dose: 100.0 mg/kg/injection, schedule: Q01DX009 (ip), vehicle: Klucel (hydroxypropylcellulose) (HPC).
Setting [6] is: dose: 200.0 mg/kg/injection, schedule: Q01DX009 (ip), vehicle: Klucel (hydroxypropylcellulose) (HPC).
[7] abbreviates: dose: 50.0 mg/kg/injection, schedule: Q01DX005 (ip), vehicle: Klucel (hydroxypropylcellulose) (HPC).
Where [8] appears, read: dose: 100.0 mg/kg/injection, schedule: Q01DX005 (ip), vehicle: Klucel (hydroxypropylcellulose) (HPC).
The mark [9] stands for this setting: dose: 50.0 mg/kg/injection, schedule: Q01DX005 (ip), vehicle: saline.
Setting [10] is: dose: 25.0 mg/kg/injection, schedule: Q01DX009 (ip), vehicle: Klucel (hydroxypropylcellulose) (HPC).

`COc1ccc(NC2=NCCS2)cc1`: the T/C was 100 % of control (dose: 50.0 mg/kg/injection, schedule: Q04DX003 (ip), vehicle: saline with Tween-80); 100 % of control (dose: 100.0 mg/kg/injection, schedule: Q04DX003 (ip), vehicle: saline with Tween-80); 100 % of control (dose: 200.0 mg/kg/injection, schedule: Q04DX003 (ip), vehicle: saline with Tween-80).
Consider `O=S(=O)(OCCCl)c1ccc(F)cc1`, for which the T/C reads like this: under setting [1], 109 % of control; under setting [2], 101 % of control; under setting [3], 100 % of control.
Take `NC(=S)N/N=C/c1c(Br)nc2sccn12`: the T/C (dose: 100.0 mg/kg/injection, schedule: Q01DX001 (ip), vehicle: Klucel (hydroxypropylcellulose) (HPC)) was 97 % of control; the T/C (dose: 200.0 mg/kg/injection, schedule: Q01DX001 (ip), vehicle: Klucel (hydroxypropylcellulose) (HPC)) is 89 % of control; the T/C (dose: 400.0 mg/kg/injection, schedule: Q01DX001 (ip), vehicle: Klucel (hydroxypropylcellulose) (HPC)) was 89 % of control.
On to `CC1(C)COC2(OCC(COc3ccccc3)O2)C1O` (stereo not given), for which the T/C was 104 % of control (dose: 60.0 mg/kg/injection, schedule: Q01DX005 (ip), vehicle: Klucel (hydroxypropylcellulose) (HPC)); 98 % of control (dose: 120.0 mg/kg/injection, schedule: Q01DX005 (ip), vehicle: Klucel (hydroxypropylcellulose) (HPC)); 98 % of control (dose: 240.0 mg/kg/injection, schedule: Q01DX005 (ip), vehicle: Klucel (hydroxypropylcellulose) (HPC)).
`CCOC(=O)c1ccc(NC(=S)Nc2ccccc2C(F)(F)F)cc1`: the T/C runs as follows: under setting [4], 100 % of control; under setting [5], 100 % of control; under setting [6], 92 % of control.
On to `Clc1cc2c(c3ncccc13)OCN(Cc1ccccc1)C2`, for which the T/C (dose: 100.0 mg/kg/injection, schedule: Q04DX003 (ip), vehicle: Klucel (hydroxypropylcellulose) (HPC)) is 91 % of control; the T/C (dose: 200.0 mg/kg/injection, schedule: Q04DX003 (ip), vehicle: Klucel (hydroxypropylcellulose) (HPC)) was 92 % of control; the T/C (dose: 400.0 mg/kg/injection, schedule: Q04DX003 (ip), vehicle: Klucel (hydroxypropylcellulose) (HPC)) is 92 % of control.
With `CSCCC(NC(=O)OC(C)(C)C)C(=O)NC(Cc1ccccc1)C(=O)NCC(=O)OC(C)(C)C` (stereo not drawn) (Boc-Met-Phe-Gly-OtBu; configuration not given here), the T/C is, setting by setting: under setting [7], 93 % of control; under setting [8], 97 % of control; (dose: 200.0 mg/kg/injection, schedule: Q01DX005 (ip), vehicle: Klucel (hydroxypropylcellulose) (HPC)) 107 % of control.
In the case of `CN1CCC/C1=C1/Cc2ccccc2C1=O`, the T/C was 91 % of control under setting [7] and 108 % of control under setting [8].
As for `CSc1noc(N)n1`, the T/C is 94 % of control (dose: 12.5 mg/kg/injection, schedule: Q01DX005 (ip), vehicle: saline); 91 % of control (dose: 25.0 mg/kg/injection, schedule: Q01DX005 (ip), vehicle: saline); 103 % of control and 94 % of control under setting [9].
`CCn1c(=O)[nH]c(=O)c2[nH]c(Cl)nc21`: the T/C runs as follows: (dose: 16.0 mg/kg/injection, schedule: Q01DX009 (ip), vehicle: Klucel (hydroxypropylcellulose) (HPC)) 103 % of control; under setting [10], 105 % of control; (dose: 32.0 mg/kg/injection, schedule: Q01DX009 (ip), vehicle: Klucel (hydroxypropylcellulose) (HPC)) 107 % of control; under setting [4], 91 % of control; (dose: 64.0 mg/kg/injection, schedule: Q01DX009 (ip), vehicle: Klucel (hydroxypropylcellulose) (HPC)) 102 % of control; under setting [5], 93 % of control.
With `C=C1C(=O)OC2CC(C)C3OC3C(=O)C(C)(O)C(O)C(O)C12` (stereo not given) (tested in a mixture with another compound), the T/C is, setting by setting: (dose: 6.25 mg/kg/injection, schedule: Q01DX009 (ip), vehicle: Klucel (hydroxypropylcellulose) (HPC)) 104 % of control; (dose: 12.5 mg/kg/injection, schedule: Q01DX009 (ip), vehicle: Klucel (hydroxypropylcellulose) (HPC)) 101 % of control and 117 % of control; under setting [10], 110 % of control and 123 % of control; under setting [4], 123 % of control; under setting [6], 119 % of control.
For `CC(C)(C)N=C(CCNc1ccccc1Cl)Nc1ccccc1Cl`, the T/C under setting [1] was 103 % of control, the T/C under setting [2] is 103 % of control and the T/C under setting [3] is 86 % of control.
`O=C1/C(=C/c2ccccc2[N+](=O)[O-])CCCc2ccccc21`: the T/C by setting is: under setting [4], 94 % of control; under setting [5], 103 % of control; under setting [6], 105 % of control.
Consider `CC1CC(=O)NC(N)=N1` (stereo not given), for which the T/C runs as follows: under setting [9], 98 % of control; (dose: 100.0 mg/kg/injection, schedule: Q01DX005 (ip), vehicle: saline) 108 % of control; (dose: 200.0 mg/kg/injection, schedule: Q01DX005 (ip), vehicle: saline) 104 % of control.
For `CN(C)C1CCc2ccccc2C1OC(=O)c1ccccc1` (stereo not given), the T/C under setting [1] was 101 % of control and the T/C under setting [2] is 107 % of control.
For `OCC1(OC2OC(CF)C(O)C(O)C2O)OC(CF)C(O)C1O` (stereo not given), the T/C is 102 % of control (dose: 60.0 mg/kg/injection, schedule: Q01DX005 (ip), vehicle: saline) and 101 % of control (dose: 120.0 mg/kg/injection, schedule: Q01DX005 (ip), vehicle: saline).
`c1nc(N2CCCCC2)c2c3c(sc2n1)CCCC3`: the T/C reads like this: (dose: 50.0 mg/kg/injection, schedule: Q01DX005 (ip), vehicle: saline with Tween-80) 100 % of control; (dose: 100.0 mg/kg/injection, schedule: Q01DX005 (ip), vehicle: saline with Tween-80) 91 % of control; (dose: 200.0 mg/kg/injection, schedule: Q01DX005 (ip), vehicle: saline with Tween-80) 96 % of control.
As for `O=C1OC(c2ccccc2)=N/C1=C\c1cccc([N+](=O)[O-])c1`, the T/C (dose: 50.0 mg/kg/injection, schedule: Q04DX002 (ip), vehicle: saline with Tween-80) was 96 % of control; the T/C (dose: 100.0 mg/kg/injection, schedule: Q04DX002 (ip), vehicle: saline with Tween-80) was 97 % of control; the T/C (dose: 200.0 mg/kg/injection, schedule: Q04DX002 (ip), vehicle: saline with Tween-80) is 99 % of control; the T/C (dose: 400.0 mg/kg/injection, schedule: Q04DX002 (ip), vehicle: saline with Tween-80) is 99 % of control.
For `CCOc1cc2c(C)c3ccccc3c(C)c2c2ccccc12`, the T/C reads like this: (dose: 42.0 mg/kg/injection, schedule: Q01DX009 (ip), vehicle: saline with Tween-80) 98 % of control; (dose: 50.0 mg/kg/injection, schedule: Q04DX003 (ip), vehicle: other) 88 % of control; (dose: 84.0 mg/kg/injection, schedule: Q01DX009 (ip), vehicle: saline with Tween-80) 94 % of control; (dose: 100.0 mg/kg/injection, schedule: Q04DX003 (ip), vehicle: other) 86 % of control; (dose: 168.0 mg/kg/injection, schedule: Q01DX009 (ip), vehicle: saline with Tween-80) 107 % of control; (dose: 400.0 mg/kg/injection, schedule: Q04DX003 (ip), vehicle: other) 86 % of control.
Take `COC(=O)N1C(C#N)=CCc2ccccc21`: the T/C reads like this: (dose: 60.0 mg/kg/injection, schedule: Q01DX005 (ip), vehicle: saline with Tween-80) 94 % of control; (dose: 120.0 mg/kg/injection, schedule: Q01DX005 (ip), vehicle: saline with Tween-80) 108 % of control; (dose: 240.0 mg/kg/injection, schedule: Q01DX005 (ip), vehicle: saline with Tween-80) 97 % of control.
With `Clc1ccc(C2(c3ccncc3)OCCO2)cc1`, the T/C was 109 % of control (dose: 75.0 mg/kg/injection, schedule: Q01DX001 (ip), vehicle: saline); 104 % of control (dose: 150.0 mg/kg/injection, schedule: Q01DX001 (ip), vehicle: saline); 90 % of control (dose: 300.0 mg/kg/injection, schedule: Q01DX001 (ip), vehicle: saline).
For `CC(C)NC(=O)OCc1c(COC(=O)NC(C)C)c2n(c1Br)CCC2`, for the setting “dose: 25.0 mg/kg/injection, schedule: Q01DX005 (ip), vehicle: saline with Tween-80”, the T/C was 186 % of control.
